{"source": "patent US20220009920A1", "about": "(GB005, Inc., priority 2020, published 2022)", "assay_in_all_cases": "Large panel kinase profiling", "format_in_all_cases": "biochemical", "conditions_in_all_cases": "1 μM test article, 1 mM ATP", "key": {"[1]": {"biological_target": "T1, DDR1 (Homo sapiens, UniProt Q08345)", "T1 construct": "AssayQuant Technologies, Inc. (service laboratory)", "T1 sequence (Q08345 19-913, species assumed)": "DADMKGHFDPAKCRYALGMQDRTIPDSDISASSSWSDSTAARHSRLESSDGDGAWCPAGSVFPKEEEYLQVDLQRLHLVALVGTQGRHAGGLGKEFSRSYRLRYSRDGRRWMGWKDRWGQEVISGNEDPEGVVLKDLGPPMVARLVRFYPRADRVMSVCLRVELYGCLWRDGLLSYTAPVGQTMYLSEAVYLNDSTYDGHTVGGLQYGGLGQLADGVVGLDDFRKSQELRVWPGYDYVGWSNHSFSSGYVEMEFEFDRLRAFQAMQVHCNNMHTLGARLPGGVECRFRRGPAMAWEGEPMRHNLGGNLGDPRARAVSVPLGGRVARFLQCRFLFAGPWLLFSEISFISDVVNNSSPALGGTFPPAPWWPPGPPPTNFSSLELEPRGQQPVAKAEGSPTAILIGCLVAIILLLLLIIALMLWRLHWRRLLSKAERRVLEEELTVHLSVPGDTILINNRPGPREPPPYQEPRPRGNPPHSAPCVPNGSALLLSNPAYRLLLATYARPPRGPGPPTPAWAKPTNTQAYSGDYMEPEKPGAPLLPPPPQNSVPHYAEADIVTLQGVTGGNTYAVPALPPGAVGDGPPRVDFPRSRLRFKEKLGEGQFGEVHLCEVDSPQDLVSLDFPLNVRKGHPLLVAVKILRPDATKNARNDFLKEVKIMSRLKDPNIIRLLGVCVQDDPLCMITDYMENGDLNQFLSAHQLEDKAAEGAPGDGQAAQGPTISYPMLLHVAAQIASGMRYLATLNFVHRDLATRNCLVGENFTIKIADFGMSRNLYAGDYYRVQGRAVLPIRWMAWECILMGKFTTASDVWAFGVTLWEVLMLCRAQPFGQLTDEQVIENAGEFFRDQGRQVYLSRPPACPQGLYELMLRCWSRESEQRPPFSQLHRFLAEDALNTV", "procedure": "(§1) Large panel kinase profiling was performed at AssayQuant Technologies, Inc. 260 Cedar Hill Street, Marlborough, Mass. 01752 using the PhosphoSens® CSox-Sensor platform using 1 μM test article concentration and 1 mM ATP concentration (www.assayquant.com). Reactions were run in Corning, half-area 96-well, white flat round bottom polystyrene NBS microplates (Cat. #3642) after sealing using optically-clear adhesive film (TopSealA-Plus plate seal, PerkinElmer), applied with either a roller or a paddle to eliminate evaporation and resulting drift. The standard total reaction volume was 50 μL. All experiments were ran at 30° C. to control for fluctuations in ambient temperature. Plates were read from the top in kinetic mode (readings taken every 1 min), monitoring fluorescence intensity with filters using Ex 360 nm and Em 485 nm and a band width of 40 and 20 nm, respectively, and a gain of 80. Data analysis was performed using either Graphpad Prism or Gene Data Screener software."}, "[2]": {"biological_target": "ABL1 (Homo sapiens, UniProt P00519)", "sequence (P00519 whole entry)": "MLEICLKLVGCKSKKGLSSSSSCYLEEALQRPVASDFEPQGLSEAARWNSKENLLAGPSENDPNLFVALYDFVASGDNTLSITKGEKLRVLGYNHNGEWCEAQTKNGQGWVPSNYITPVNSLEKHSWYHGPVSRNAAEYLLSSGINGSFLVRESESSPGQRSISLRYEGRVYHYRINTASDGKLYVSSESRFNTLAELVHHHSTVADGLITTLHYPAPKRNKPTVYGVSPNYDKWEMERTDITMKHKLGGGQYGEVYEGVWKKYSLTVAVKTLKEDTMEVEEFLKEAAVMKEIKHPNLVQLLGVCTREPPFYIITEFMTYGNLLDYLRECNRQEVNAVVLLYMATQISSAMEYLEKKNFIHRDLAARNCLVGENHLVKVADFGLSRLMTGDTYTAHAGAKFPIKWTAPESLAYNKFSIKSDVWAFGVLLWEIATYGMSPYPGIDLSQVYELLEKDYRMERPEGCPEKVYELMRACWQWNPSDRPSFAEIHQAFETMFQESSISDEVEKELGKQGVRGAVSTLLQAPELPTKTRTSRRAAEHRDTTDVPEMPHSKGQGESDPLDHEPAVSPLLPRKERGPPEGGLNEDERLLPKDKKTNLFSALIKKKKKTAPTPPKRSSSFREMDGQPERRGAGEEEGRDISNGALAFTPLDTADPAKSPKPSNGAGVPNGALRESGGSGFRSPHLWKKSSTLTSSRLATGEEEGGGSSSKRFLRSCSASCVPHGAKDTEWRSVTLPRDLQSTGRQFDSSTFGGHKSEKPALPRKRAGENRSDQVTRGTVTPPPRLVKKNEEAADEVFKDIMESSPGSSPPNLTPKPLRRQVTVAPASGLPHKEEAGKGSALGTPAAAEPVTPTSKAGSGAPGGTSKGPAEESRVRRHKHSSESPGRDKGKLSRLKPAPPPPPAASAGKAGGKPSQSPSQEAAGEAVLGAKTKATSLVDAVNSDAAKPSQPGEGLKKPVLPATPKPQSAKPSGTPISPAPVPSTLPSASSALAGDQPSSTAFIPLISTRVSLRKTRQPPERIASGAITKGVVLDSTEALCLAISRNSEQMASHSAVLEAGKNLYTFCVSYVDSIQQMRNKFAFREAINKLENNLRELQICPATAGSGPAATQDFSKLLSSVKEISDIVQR", "procedure": "as §1"}, "[3]": {"biological_target": "RPS6KA2/RSK3 (Homo sapiens, UniProt Q15349)", "procedure": "as §1"}, "[4]": {"biological_target": "T2, EPHA8 (Homo sapiens, UniProt P29322)", "T2 sequence (P29322 28-1005)": "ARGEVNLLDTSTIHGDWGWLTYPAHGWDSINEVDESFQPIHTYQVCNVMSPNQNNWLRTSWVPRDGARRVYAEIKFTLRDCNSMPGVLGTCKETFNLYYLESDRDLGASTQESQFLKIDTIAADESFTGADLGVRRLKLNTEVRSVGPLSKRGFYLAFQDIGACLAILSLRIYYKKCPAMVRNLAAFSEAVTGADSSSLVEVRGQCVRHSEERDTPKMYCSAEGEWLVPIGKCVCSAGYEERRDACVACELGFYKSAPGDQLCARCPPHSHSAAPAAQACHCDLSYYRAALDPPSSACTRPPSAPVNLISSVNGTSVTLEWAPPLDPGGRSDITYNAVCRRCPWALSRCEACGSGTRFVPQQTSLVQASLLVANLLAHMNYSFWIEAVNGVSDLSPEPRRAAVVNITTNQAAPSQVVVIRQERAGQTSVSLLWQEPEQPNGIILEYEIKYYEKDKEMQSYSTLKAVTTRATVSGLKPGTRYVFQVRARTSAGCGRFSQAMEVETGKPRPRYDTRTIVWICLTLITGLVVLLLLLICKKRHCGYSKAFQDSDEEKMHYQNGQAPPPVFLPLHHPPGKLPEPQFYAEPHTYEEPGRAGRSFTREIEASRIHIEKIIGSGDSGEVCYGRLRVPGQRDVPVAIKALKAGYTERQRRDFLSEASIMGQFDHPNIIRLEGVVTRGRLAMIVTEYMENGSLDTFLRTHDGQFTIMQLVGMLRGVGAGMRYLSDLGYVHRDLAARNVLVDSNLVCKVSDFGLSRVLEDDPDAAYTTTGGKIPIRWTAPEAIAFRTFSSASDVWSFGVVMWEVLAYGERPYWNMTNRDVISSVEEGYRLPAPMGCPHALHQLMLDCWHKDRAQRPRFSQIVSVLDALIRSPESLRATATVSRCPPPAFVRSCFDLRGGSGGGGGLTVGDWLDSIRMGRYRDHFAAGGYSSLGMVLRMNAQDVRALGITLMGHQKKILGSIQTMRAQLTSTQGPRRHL", "procedure": "as §1"}, "[5]": {"biological_target": "T3, CDK16/T (Homo sapiens, UniProt Q00536)", "T3 construct": "AssayQuant Technologies, Inc. (ran the panel)", "T3 sequence (Q00536 whole entry, species assumed)": "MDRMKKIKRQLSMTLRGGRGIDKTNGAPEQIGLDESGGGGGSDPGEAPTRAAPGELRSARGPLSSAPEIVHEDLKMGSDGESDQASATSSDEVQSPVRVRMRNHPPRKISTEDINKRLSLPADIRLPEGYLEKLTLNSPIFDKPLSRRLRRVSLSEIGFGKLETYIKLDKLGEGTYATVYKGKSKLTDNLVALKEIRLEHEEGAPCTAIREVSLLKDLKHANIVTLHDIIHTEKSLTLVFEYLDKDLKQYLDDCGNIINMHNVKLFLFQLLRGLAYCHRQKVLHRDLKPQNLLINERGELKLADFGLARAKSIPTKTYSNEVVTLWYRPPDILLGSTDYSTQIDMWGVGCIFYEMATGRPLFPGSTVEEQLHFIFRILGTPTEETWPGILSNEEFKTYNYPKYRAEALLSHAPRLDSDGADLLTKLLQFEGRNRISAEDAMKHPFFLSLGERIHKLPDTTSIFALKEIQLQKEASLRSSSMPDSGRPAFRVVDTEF", "T3 sequence (Q8ND76 whole entry partner, species assumed)": "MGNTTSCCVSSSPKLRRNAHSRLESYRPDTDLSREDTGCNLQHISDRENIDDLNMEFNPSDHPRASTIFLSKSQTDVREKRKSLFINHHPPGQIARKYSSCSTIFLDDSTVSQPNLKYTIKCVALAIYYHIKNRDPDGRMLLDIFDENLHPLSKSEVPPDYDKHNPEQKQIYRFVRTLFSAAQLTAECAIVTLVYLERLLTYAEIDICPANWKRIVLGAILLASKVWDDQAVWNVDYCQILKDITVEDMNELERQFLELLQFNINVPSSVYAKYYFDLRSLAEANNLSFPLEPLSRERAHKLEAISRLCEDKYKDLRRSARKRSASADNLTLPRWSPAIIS", "procedure": "as §1"}, "[6]": {"biological_target": "PRKCA/PKCA (Homo sapiens, UniProt P17252)", "procedure": "as §1"}, "[7]": {"biological_target": "LYNA (Homo sapiens, UniProt P07948)", "sequence (P07948 whole entry, species assumed)": "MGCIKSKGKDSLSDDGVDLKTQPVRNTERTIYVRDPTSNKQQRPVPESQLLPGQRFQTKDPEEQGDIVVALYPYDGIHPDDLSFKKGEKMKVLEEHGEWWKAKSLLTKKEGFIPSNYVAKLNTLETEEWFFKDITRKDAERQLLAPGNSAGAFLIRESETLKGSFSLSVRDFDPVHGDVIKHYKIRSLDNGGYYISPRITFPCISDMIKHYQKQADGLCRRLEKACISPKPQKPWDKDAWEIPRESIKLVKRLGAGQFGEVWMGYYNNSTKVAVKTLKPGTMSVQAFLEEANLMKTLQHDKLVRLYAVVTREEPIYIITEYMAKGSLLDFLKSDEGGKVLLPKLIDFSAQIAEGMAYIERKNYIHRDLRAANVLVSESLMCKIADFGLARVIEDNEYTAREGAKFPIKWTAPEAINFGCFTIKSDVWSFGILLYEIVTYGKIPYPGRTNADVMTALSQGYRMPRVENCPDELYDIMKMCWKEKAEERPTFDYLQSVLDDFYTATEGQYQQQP", "procedure": "as §1"}, "[8]": {"biological_target": "LYNB (Homo sapiens, UniProt P07948)", "sequence (P07948 1-491 isoform P07948-2, species assumed)": "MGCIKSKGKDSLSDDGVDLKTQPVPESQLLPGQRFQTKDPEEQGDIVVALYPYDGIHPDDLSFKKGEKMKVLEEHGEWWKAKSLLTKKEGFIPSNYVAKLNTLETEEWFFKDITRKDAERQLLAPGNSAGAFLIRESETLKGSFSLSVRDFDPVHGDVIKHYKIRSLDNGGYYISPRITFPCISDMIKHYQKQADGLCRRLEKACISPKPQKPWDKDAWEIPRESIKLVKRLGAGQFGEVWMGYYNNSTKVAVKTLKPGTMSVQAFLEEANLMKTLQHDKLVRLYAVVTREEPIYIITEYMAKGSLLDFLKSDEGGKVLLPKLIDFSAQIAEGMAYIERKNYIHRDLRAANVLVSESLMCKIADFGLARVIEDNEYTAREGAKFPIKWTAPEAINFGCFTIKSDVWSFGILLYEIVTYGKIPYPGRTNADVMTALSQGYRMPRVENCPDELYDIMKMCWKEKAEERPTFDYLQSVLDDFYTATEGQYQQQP", "procedure": "as §1"}, "[9]": {"biological_target": "AKT2 (Homo sapiens, UniProt P31751)", "sequence (P31751 whole entry)": "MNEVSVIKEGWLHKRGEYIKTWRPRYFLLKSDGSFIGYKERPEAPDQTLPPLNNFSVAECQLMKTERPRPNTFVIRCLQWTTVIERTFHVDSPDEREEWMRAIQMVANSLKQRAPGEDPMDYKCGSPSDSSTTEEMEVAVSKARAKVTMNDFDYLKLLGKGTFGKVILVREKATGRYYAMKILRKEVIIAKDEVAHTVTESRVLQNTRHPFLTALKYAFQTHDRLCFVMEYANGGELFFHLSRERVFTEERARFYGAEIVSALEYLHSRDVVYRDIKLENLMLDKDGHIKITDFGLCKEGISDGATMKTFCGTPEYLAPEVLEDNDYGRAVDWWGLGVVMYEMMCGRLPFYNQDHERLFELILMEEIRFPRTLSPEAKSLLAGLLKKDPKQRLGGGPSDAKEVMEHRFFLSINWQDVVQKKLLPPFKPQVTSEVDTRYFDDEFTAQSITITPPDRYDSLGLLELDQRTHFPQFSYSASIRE", "procedure": "as §1"}, "[10]": {"biological_target": "T4, CAMK4 (Homo sapiens, UniProt Q16566)", "T4 construct": "AssayQuant Technologies, Inc. (ran the panel)", "T4 sequence (Q16566 1-473)": "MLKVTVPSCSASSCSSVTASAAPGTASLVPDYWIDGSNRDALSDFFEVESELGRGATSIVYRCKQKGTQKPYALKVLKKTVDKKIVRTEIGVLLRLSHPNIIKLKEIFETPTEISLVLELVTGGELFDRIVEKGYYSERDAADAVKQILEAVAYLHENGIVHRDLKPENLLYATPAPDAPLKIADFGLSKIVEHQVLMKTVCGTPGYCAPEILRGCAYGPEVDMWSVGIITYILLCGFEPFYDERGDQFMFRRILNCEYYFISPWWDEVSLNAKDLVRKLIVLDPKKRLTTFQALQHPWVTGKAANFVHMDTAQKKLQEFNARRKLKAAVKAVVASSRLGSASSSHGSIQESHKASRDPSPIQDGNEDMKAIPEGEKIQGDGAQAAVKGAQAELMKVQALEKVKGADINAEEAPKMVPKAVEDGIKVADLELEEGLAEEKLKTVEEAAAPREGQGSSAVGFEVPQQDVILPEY", "procedure": "as §1"}}, "data": [{"smiles": "C=CC(=O)N1CCCC(c2c(F)cc(C(N)=O)c3[nH]c4c(c23)CCCCC4)C1", "note": "(single isomer, unassigned) [Compound 5-6]", "values": [{"measurement": "inhibition at 1 µM", "setting": "[1]", "result": 1.4, "unit": "%"}, {"measurement": "inhibition at 1 µM", "setting": "[2]", "result": -14.6, "unit": "%"}, {"measurement": "inhibition at 1 µM", "setting": "[3]", "result": 1.7, "unit": "%"}, {"measurement": "inhibition at 1 µM", "setting": "[4]", "result": 10, "unit": "%"}, {"measurement": "inhibition at 1 µM", "setting": "[5]", "result": 19.7, "unit": "%"}, {"measurement": "inhibition at 1 µM", "setting": "[6]", "result": 2.3, "unit": "%"}, {"measurement": "inhibition at 1 µM", "setting": "[7]", "result": -2.9, "unit": "%"}, {"measurement": "inhibition at 1 µM", "setting": "[8]", "result": 8.9, "unit": "%"}, {"measurement": "inhibition at 1 µM", "setting": "[9]", "result": 0.5, "unit": "%"}, {"measurement": "inhibition at 1 µM", "setting": "[10]", "result": 15.7, "unit": "%"}]}, {"smiles": "C=CC(=O)N1CCC[C@@H](c2c(F)cc(C(N)=O)c3[nH]c4c(c23)CC2(CC4)CC2)C1", "note": "[Compound 6-2, (S)-5-(1-acryloylpiperidin-3-yl)-6-fluoro-1,2,4,9-tetrahydrospiro[carbazole-3,1′-cyclopropane]-8-carboxamide]", "values": [{"measurement": "inhibition at 1 µM", "setting": "[1]", "result": 24.5, "unit": "%"}, {"measurement": "inhibition at 1 µM", "setting": "[2]", "result": 2.5, "unit": "%"}, {"measurement": "inhibition at 1 µM", "setting": "[3]", "result": -47.9, "unit": "%"}, {"measurement": "inhibition at 1 µM", "setting": "[4]", "result": -15.3, "unit": "%"}, {"measurement": "inhibition at 1 µM", "setting": "[5]", "result": -3.1, "unit": "%"}, {"measurement": "inhibition at 1 µM", "setting": "[6]", "result": 14.7, "unit": "%"}, {"measurement": "inhibition at 1 µM", "setting": "[7]", "result": 36.4, "unit": "%"}, {"measurement": "inhibition at 1 µM", "setting": "[8]", "result": 28.9, "unit": "%"}, {"measurement": "inhibition at 1 µM", "setting": "[9]", "result": 0.4, "unit": "%"}, {"measurement": "inhibition at 1 µM", "setting": "[10]", "result": 26.6, "unit": "%"}]}, {"smiles": "C=CC(=O)N1CCC[C@@H](c2c(F)cc(C(N)=O)c3[nH]c4c(c23)CCC4)C1", "note": "[Compound 10-2, (S)-8-(1-acryloylpiperidin-3-yl)-7-fluoro-1,2,3,4-tetrahydrocyclo-penta[b]indole-5-carboxamide]", "values": [{"measurement": "inhibition at 1 µM", "setting": "[1]", "result": -41.1, "unit": "%"}, {"measurement": "inhibition at 1 µM", "setting": "[2]", "result": 3.1, "unit": "%"}, {"measurement": "inhibition at 1 µM", "setting": "[3]", "result": -38, "unit": "%"}, {"measurement": "inhibition at 1 µM", "setting": "[4]", "result": -19.1, "unit": "%"}, {"measurement": "inhibition at 1 µM", "setting": "[5]", "result": -8.1, "unit": "%"}, {"measurement": "inhibition at 1 µM", "setting": "[6]", "result": -3.5, "unit": "%"}, {"measurement": "inhibition at 1 µM", "setting": "[7]", "result": 22.8, "unit": "%"}, {"measurement": "inhibition at 1 µM", "setting": "[8]", "result": 23.2, "unit": "%"}, {"measurement": "inhibition at 1 µM", "setting": "[9]", "result": 11.9, "unit": "%"}, {"measurement": "inhibition at 1 µM", "setting": "[10]", "result": 15.3, "unit": "%"}]}]}
